What was measured:
ADHIP rats [1] = assay: Behavior testing of sEHi-treated ADHIP rats (composite z-score); type: in vivo, rat; conditions: late stage (>16 months old) and early stage (12 months old) cohorts, treated vs untreated
Protocol: (§1) Pharmacological treatment on animals To increase plasma eicosanoids levels, the animals were treated with TPPU (1-Trifluoromethoxyphenyl-3-(1-propionylpiperidin-4-yl) urea, N-[1-(1-Oxopropyl)-4-piperidinyl]-N′-[4-(trifluoromethoxy)phenyl]-urea), a soluble epoxide hydrolase inhibitor (sEHi) (HY-101294, MedChem Express). […] 12 months old (n=5; early-stage) and 16 months old (n=6; late stage) animals were subjected to treatment with sEHi. For treatment at early-stage, the drug was administered through drinking water (3 mg/L, daily) and intravenous injection (20 μg/kg, once a week) to ensure equal intake for each animal. […] Amount of water intake was measured daily.
Behavior testing Forelimb use test/Cylinder test, inclined plane, hind limb clasping test. […] Animal forelimb deficit was evaluated by forelimb-to-wall contact time in cylinder test. […] Abnormalities in the animal hind limbs were assessed by scoring the severity of hind limb clasping.
Rotarod assessment Motor coordination and balance were tested by the rotarod (Rotamex 5, Columbus Instrument, OH) test^27. […] The remaining read-outs were averaged, and a group average was calculated for each genotype. […]
Morris Water Maze Spatial learning and long-term memory retention were tested in a 1.5 m diameter Morris Water Maze, as previously described^15. […] Trials were recorded by EthoVision XT software (Noldus, VA). […]

[2] = reference 24; cited from earlier work
ADHIP rats [3] = assay: Hypoxia markers in brain and brain capillary lysates of sEHi-treated ADHIP rats; type: in vivo, rat; conditions: treated vs untreated, HIF-1α, HIF-2α, Arg-1, Arg-2, arginase activity, mitochondrial DNA
Protocol: as §1, with “daily. […]” for “daily.”
Enzyme-linked immune absorbance assay (ELISA) Levels of amylin in human brain samples were measured using sandwich amylin ELISA from Millipore (EZHA-52K). Levels of amylin in human CSF and animal samples were measured using amylin sandwich ELISA from R&D system (EIA-AMY). Aβ levels in animal CSF were measured using high sensitivity electrochemiluminescence ELISA (MSD 6E10, K15200G-2, Meso Scale Discovery). […]
Arginase activity Arginase activity in rat brain capillaries were measured using arginase activity kit (MAK112, Sigma). […]
Mitochondria DNA extraction and analysis Protocol for quantifying mitochondrial DNA content was described in Ref 32. […] DNA purity was assessed by ensuring the A260/A280 ratio was >1.8. […]

ADHIP rats [4] = assay: Histology and immunohistochemistry of brains of sEHi-treated ADHIP rats; type: in vivo, rat; conditions: treated vs untreated; for extent of axonal degeneration: MBP and LFB staining; for amylin deposition in brain capillaries: immunohistochemical analysis
Protocol: Pharmacological treatment on animals To increase plasma eicosanoids levels, the animals were treated with TPPU (1-Trifluoromethoxyphenyl-3-(1-propionylpiperidin-4-yl) urea, N-[1-(1-Oxopropyl)-4-piperidinyl]-N′-[4-(trifluoromethoxy)phenyl]-urea), a soluble epoxide hydrolase inhibitor (sEHi) (HY-101294, MedChem Express). […] 12 months old (n=5; early-stage) and 16 months old (n=6; late stage) animals were subjected to treatment with sEHi. For treatment at early-stage, the drug was administered through drinking water (3 mg/L, daily) and intravenous injection (20 μg/kg, once a week) to ensure equal intake for each animal. For treatment at late-stage, the drug was administered through and intravenous injection (20 μg/kg, daily, 1 month) and then through drinking water (3 mg/L, daily, 1 month). Amount of water intake was measured daily.
Histology and demyelination scoring Myelination in rat brains was analyzed by staining with Luxol fast blue (LFB) dye. Scoring analysis method was performed as described previously^15. Microhemorrhages in rat brains were stained with Prussian blue dye and analyzed as described previously^15. Congo red staining was performed on the human brains as previously^11 described.
Immunohistochemistry. Formalin fixed, paraffin embedded brain and pancreas tissues from humans, ADHIP, AD, WT, and AD-AKO rats were used. Tissues were processed as previously described^11,14,15,27. After tissue rehydration, the endogenous peroxidase was quenched in 3% H2O2 in methanol for 30 minutes. For amylin and Aβ antigen retrieval, sections were treated with 100% formic acid for 5 minutes, followed by 0.5% pepsin digestion in 5 mM HCl for 20 minutes at 37° C. To retrieve intra-neuronal amylin antigen (rat brains) as well as other antigens, tissue sections were heated in citrate buffer for 30 minutes. Non-specific antibody binding was blocked by 15% horse serum for 1 hour at room temperature (RT). Primary antibodies against amylin, human Aβ, Iba1, CD68 or myelin basic protein (MBP) was incubated on slides overnight at 4° C. Sections were then washed and incubated with secondary antibodies. Signal was developed with DAB or AEC peroxidase substrate. For co-staining with two antibodies, after the signal was developed for the first antibody, sections were then rinsed in water. Non-specific antibody binding was blocked with 10% normal goat serum, and the sections were incubated with the second primary antibody overnight at 4° C. Sections were then washed and incubated with AP-conjugated secondary antibody, and developed with StayGreen/AP chromogen substrate. Sections were mounted with aqueous mounting medium. The specificity of the amylin antibody in both human and rat brain tissues was established in previous studies^11,14,15,27.
Imaging analysis Wide-field images of stained tissue sections were generated by stitching images obtained from the 10× objective lens (Nikon NIS-Element Software). Higher magnification images for specific tissue area were obtained using the 40× objective lens. The immunoreactivity signal for each antibody was analyzed by ImageJ. Clearly defined-signal pixels were selected to establish the RGB profile of the color of interest. The threshold for each color signal was adjusted to reduce background noise. The established RGB profile and threshold were applied to a Macro script command, using Color Deconvolution plugin in ImageJ. The staining area was calculated using the following equation: […]

LRP1 = LRP1 protein expression in rat brain microvascular ECs (Western blot, immunofluorescence); type: cell-based
From the text: To study the role of miRNA signaling in amylin-induced suppression of endothelial LRP1 expression, transfection of rat brain microvascular ECs was used with miR-103-3p (MCR01039)[…](SEQ ID NO: 5), miR-107-3p (MCR01045)[…](SEQ ID NO: 6) and control (MCH00000) (https://www.abmgood.com/mirna-mimic-negative-control-mch00000.html). Antagomir miR-103-3p (IH-320345-05-0005)(SEQ ID NO: 5), miR-107-3p (IH-320348-05-0005)(SEQ ID NO: 6) and negative control (IN-001005-01-05) (https://www.biocompare.com/22445-RNA/4995709-miRIDIAN-microRNA-Hairpin-Inhibitor-Negative-Control-1-5-nmol/#productspecs) (Dharmacon Inc.) were used in an attempt to rescue LRP1 expression. All transfections were done using RNAiMAX (Invitrogen) as per manufacturer's recommended protocol. Briefly, ECs were plated at 50% confluency in 6-well plates followed by co-transfection with either 100 nM of 103-3p and 107-3p mimics or antagomirs along with their respective negative controls. After 12-hours, antagomir-treated cell groups were further treated with 10 uM human amylin for 24-hours. After 36-hours of transfection, cells were harvested for Western blot analysis.
In immunofluorescence experiments, formalin-fixed, paraffin-embedded human brain tissue was used and processed as previously described^16,18,39, brain capillaries from HIP and WT rats isolated as previously described^18. and cultured ECs. Anti-amylin (1:200; clone E5; SC-377530; Santa Cruz), anti-collagen IV (1:500; ab6586; abcam), anti-alpha smooth muscle actin-Alexa Fluor 405 (1:200; ab210128, abcam), anti-caveolin-1 (1:100; sc-894; Santa Cruz, Tex.), anti-LRP1 (1:500; sc-57351; Santa Cruz), anti-4HNE (1:200; ab46545; abcam) were the primary antibodies. Secondary antibodies were: Alexa Fluor 488 conjugated anti-mouse IgG (1:300; A11029; Invitrogen), Alexa Fluor 568 conjugated anti-rabbit IgG (1:200; A11036; Invitrogen), Alexa Fluor 568 conjugated anti-mouse IgG (1:300; A11004; Invitrogen). Nuclei were counterstained with DAPI mounting media. For triple staining of human brain tissues, smooth muscle actin-Alexa Fluor 405 antibody was added after staining with human amylin and collagen IV; DAPI free mounting media was used. For Thioflavin S staining, after secondary antibody incubation, brain slides were incubated in 0.5% Thioflavin S for 30 minutes at room temperature. Slides were then incubated for 3 minutes in 70% ethanol, 5 minutes in 0.2% Sudan black before washing and mounting. Immunocytochemistry was performed as described previously (39, 40).
Western blot analysis was performed on isolated brain capillaries, brain tissue homogenate and plasma from rats. Tissues were processed as described previously^16,18,28,39. RIPA buffer with 2% SDS was used to retrieve Aβ monomers from frozen brain samples^41. […]

[5] = listed as inhibitor of soluble epoxide hydrolase (sEH)

For CCC(=O)N1CCC(NC(=O)Nc2ccc(OC(F)(F)F)cc2)CC1 [sEHi, 1-(1-propanoylpiperidin-4-yl)-3-[4-(trifluoromethoxy)phenyl]urea], the behavior deficits (ADHIP rats [1]) is listed as “attenuation of functional decline”, the behavior deficits (ADHIP rats [1]; [5]) is listed as “reduced behavior deficits” and the “level of circulating amylin” value [2] is listed as “lower the level of circulating amylin”. For the same compound, the “brain accumulation of hypoxia markers” value (ADHIP rats [3]) was “lowered brain accumulation of hypoxia markers”, the “extent of axonal degeneration” value (ADHIP rats [4]) was “ameliorated” and the “extent of axonal degeneration” value (ADHIP rats [4]; [5]) was “reduced”. For the same compound, the “number of brain microhemorrhages” value (ADHIP rats [4]; Prussian blue) was “reduced”, the “amylin deposition in brain capillaries” value (ADHIP rats [4]) was “reduced capillary amylin deposition” and the “amylin deposition in brain capillaries” value (ADHIP rats [4]; [5]) was “reduced amylin deposition in brain capillaries”.

With “miR-103 and miR-107 mimics: co-transfected miRNA mimics miR-103-3p (SEQ ID NO: 5) and miR-107-3p (SEQ ID NO: 6) (chain 1 AGCAGCAUUGUACAGGGCUAUGA; chain 2 AGCUUCUUUACAGUGUUGCCUUGU; listed as RNA, chemistry not given here)” the “average LRP1 expression level” value (LRP1; ECs co-transfected with 100 nM mimics, 24 hours, vs miR-control, Western blot) was “lower”.

In the case of rat amylin, the LRP1 protein levels (LRP1; ECs, 10 μM, 24-hour incubation, confocal microscopy and Western blot) is reported as “no effect”.

Source: patent publication US20220401428A1, “Method for Treatment of Alzheimer's Disease” (University of Kentucky Research Foundation, priority 2019, published 2022)
